# Data reported in patent US20250163047A1, “HETEROCYCLIC COMPOUNDS, COMPOSITIONS THEREOF, AND METHODS OF TREATMENT THEREWITH” (BeiGene, Ltd., priority 2022, published 2025).
# Columns and labels:
# [1] = biological target: T1, Cbl-b (aa36-427) (Homo sapiens, UniProt Q13191); assay: Co-expressed Cbl-b with BirA biochemical assay (CBLB/E2-Ub binding, HTRF); conditions: 0.6 nM Cbl-b co-expressed with BirA, HTRF; read-out: co-express CBLB/E2-Ub-binding assay IC50
# T1 construct: Cbl-b (aa36-427, in-house); made in house
# From the text: (§1) The assay in the absence of a Cbl-b/Cbl inhibitor, where phosphorylation of Cbl-b/Cbl by the Src kinase allows UbcH5B-Ub to bind to Cbl-b/Cbl and brings the Bodipy-Fluorescein tagged ubiquitin in proximity to the streptavidin-terbium bound to the N-terminal biotinylated Avi-tagged Cbl-b/Cbl. […] The lack of a FRET signal indicates Cbl-b/Cbl is inhibited by the Cbl-b/Cbl inhibitor.
# [2] = biological target: T2, Cbl (aa49-434) (Homo sapiens, UniProt P22681); assay: Co-expressed Cbl with BirA biochemical assay (CBL/E2-Ub binding, HTRF); conditions: 0.6 nM Cbl co-expressed with BirA, read-out: co-express CBL/E2-Ub-binding assay IC50
# T2 construct: Cbl (aa49-434, in-house); made in house
# T2 sequence (P22681 49-434): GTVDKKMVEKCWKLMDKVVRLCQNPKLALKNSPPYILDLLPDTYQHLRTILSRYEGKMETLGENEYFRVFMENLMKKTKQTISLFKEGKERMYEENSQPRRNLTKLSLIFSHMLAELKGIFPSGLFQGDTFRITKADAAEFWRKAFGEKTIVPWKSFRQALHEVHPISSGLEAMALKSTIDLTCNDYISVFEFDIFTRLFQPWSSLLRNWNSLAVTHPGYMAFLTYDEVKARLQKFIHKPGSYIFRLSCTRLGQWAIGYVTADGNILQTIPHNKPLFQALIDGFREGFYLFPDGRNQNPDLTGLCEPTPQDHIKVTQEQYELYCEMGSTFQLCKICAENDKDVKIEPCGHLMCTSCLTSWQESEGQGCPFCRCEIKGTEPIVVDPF
# From the text: as §1
# T1 sequence (Q13191 36-427): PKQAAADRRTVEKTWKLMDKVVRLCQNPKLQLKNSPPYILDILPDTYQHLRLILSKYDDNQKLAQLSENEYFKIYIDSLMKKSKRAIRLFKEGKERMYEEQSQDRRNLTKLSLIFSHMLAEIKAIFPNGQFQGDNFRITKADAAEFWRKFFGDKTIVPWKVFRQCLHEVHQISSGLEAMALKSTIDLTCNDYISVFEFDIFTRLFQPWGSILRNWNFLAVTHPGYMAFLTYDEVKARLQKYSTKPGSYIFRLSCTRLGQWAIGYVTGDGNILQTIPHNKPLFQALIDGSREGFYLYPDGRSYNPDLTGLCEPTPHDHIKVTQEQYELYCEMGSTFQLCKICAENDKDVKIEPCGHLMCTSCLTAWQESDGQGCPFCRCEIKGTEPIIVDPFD
Structure (SMILES),IC50 [1],IC50 [2]
"Cn1cnnc1[C@]1(c2cncc(NC(=O)c3cc(CNCC4CCC4)c4c(n3)C(C)(C)CC4)c2)C[C@H](C)C1 [Compound C29, 4-(((cyclobutylmethyl)amino)methyl)-7,7-dimethyl-N-(5-((1s, 3s)-3-methyl-1-(4-methyl-4H-1,2,4-triazol-3-yl)cyclobutyl)pyridin-3-yl)-6,7-dihydro-5H-cyclopenta[b]pyridine-2-carboxamide]",4.2 nM,9.6 nM
"Cn1cnnc1[C@]1(c2cccc(NC(=O)c3cc(CNCC4CCC4)c4c(n3)C(C)(C)CN4)c2)C[C@H](CC#N)C1 [Compound C30, N-(3-((1s, 3s)-3-(cyanomethyl)-1-(4-methyl-4H-1,2,4-triazol-3-yl)cyclobutyl)phenyl)-7-(((cyclobutylmethyl)amino)methyl)-3,3-dimethyl-2,3-dihydro-1H-pyrrolo[3,2-b]pyridine-5-carboxamide]",1.4 nM,3.3 nM
"Cn1cnnc1[C@]1(c2cccc(NC(=O)c3cc(CNC4(C)CCC4)c4c(n3)C3(CC3)CN4)c2)C[C@H](CC#N)C1 [Compound C31, N-(3-((1s, 3s)-3-(cyanomethyl)-1-(4-methyl-4H-1,2,4-triazol-3-yl)cyclobutyl)phenyl)-7′-(((1-methylcyclobutyl)amino)methyl)-1′,2′-dihydrospiro[cyclopropane-1,3′-pyrrolo[3,2-b]pyridine]-5′-carboxamide]",3.9 nM,17 nM
"CC(C)CNCc1cc(C(=O)Nc2cccc([C@]3(c4nncn4C)C[C@@H](CC#N)C3)c2)nc2c1NCC2(C)C [Compound C32, 3,3-dimethyl-7-{[(2-methylpropyl)amino]methyl}-N-{3-[(1s, 3s)-3-(cyanomethyl)-1-(4-methyl-1,2,4-triazol-3-yl)cyclobutyl]phenyl}-1H,2H-pyrrolo[3,2-b]pyridine-5-carboxamide]",1.87 nM,7.72 nM
"Cn1cnnc1[C@]1(c2cccc(NC(=O)c3cc(CNCC4CCCC4)c4c(n3)C(C)(C)CO4)c2)C[C@H](C)C1 [Compound C33, 7-(((cyclopentylmethyl)amino)methyl)-3,3-dimethyl-N-(3-((1s, 3s)-3-methyl-1-(4-methyl-4H-1,2,4-triazol-3-yl)cyclobutyl)phenyl)-2,3-dihydrofuro[3,2-b]pyridine-5-carboxamide]",11.4 nM,46.7 nM
"C[C@H](NCc1cc(C(=O)Nc2cccc([C@]3(c4nncn4C)C[C@@H](C)C3)c2)nc2c1OCC2(C)C)C1CCCC1 [Compound C34, 7-((((S)-1-cyclopentylethyl)amino)methyl)-3,3-dimethyl-N-(3-((1s,3R)-3-methyl-1-(4-methyl-4H-1,2,4-triazol-3-yl)cyclobutyl)phenyl)-2,3-dihydrofuro[3,2-b]pyridine-5-carboxamide]",1.3 nM,5.1 nM
"C[C@H](NCc1cc(C(=O)Nc2cccc([C@]3(c4nncn4C)C[C@@H](C)C3)c2)nc2c1OCC2(C)C)C1CC1 [Compound C35, 7-((((S)-1-cyclopropylethyl)amino)methyl)-3,3-dimethyl-N-(3-((1s,3R)-3-methyl-1-(4-methyl-4H-1,2,4-triazol-3-yl)cyclobutyl)phenyl)-2,3-dihydrofuro[3,2-b]pyridine-5-carboxamide]",3.8 nM,24.4 nM
"C[C@H](NCc1cc(C(=O)Nc2cccc([C@]3(c4nncn4C)C[C@@H](CC#N)C3)c2)nc2c1NCC21CC1)C1CC1 [Compound C36, N-(3-((1s,3R)-3-(cyanomethyl)-1-(4-methyl-4H-1,2,4-triazol-3-yl)cyclobutyl)phenyl)-7′-((((S)-1-cyclopropylethyl)amino)methyl)-1′,2′-dihydrospiro[cyclopropane-1,3′-pyrrolo[3,2-b]pyridine]-5′-carboxamide]",1.8 nM,2.8 nM
"Cn1cnnc1[C@]1(c2cccc(NC(=O)c3cc(CNCC4(C)CCC4)c4c(n3)C(C)(C)CC4)c2)C[C@H](CC#N)C1 [Compound C37, N-(3-((1s, 3s)-3-(cyanomethyl)-1-(4-methyl-4H-1,2,4-triazol-3-yl)cyclobutyl)phenyl)-7,7-dimethyl-4-((((1-methylcyclobutyl)methyl)amino)methyl)-6,7-dihydro-5H-cyclopenta[b]pyridine-2-carboxamide]",0.9 nM,2.4 nM
"C[C@H](NCc1cc(C(=O)Nc2cccc([C@]3(c4nncn4C)C[C@@H](CC#N)C3)c2)nc2c1CCC2(C)C)C1CCC1 [Compound C38, N-(3-((1s,3R)-3-(cyanomethyl)-1-(4-methyl-4H-1,2,4-triazol-3-yl)cyclobutyl)phenyl)-4-((((S)-1-cyclobutylethyl)amino)methyl)-7,7-dimethyl-6,7-dihydro-5H-cyclopenta[b]pyridine-2-carboxamide]",1.1 nM,1.5 nM
"C[C@H](NCc1cc(C(=O)Nc2cccc([C@]3(c4nncn4C)C[C@@H](CC#N)C3)c2)nc2c1CCC2(C)C)C1CC1 [Compound C39, N-(3-((1s,3R)-3-(cyanomethyl)-1-(4-methyl-4H-1,2,4-triazol-3-yl)cyclobutyl)phenyl)-4-((((S)-1-cyclopropylethyl)amino)methyl)-7,7-dimethyl-6,7-dihydro-5H-cyclopenta[b]pyridine-2-carboxamide]",0.8 nM,2.9 nM
"Cn1cnnc1[C@]1(c2cccc(NC(=O)c3cc(CNC4(C)CCC4)c4c(n3)C(C)(C)CC4)c2)C[C@H](CC#N)C1 [Compound C40, N-(3-((1s, 3s)-3-(cyanomethyl)-1-(4-methyl-4H-1,2,4-triazol-3-yl)cyclobutyl)phenyl)-7,7-dimethyl-4-(((1-methylcyclobutyl)amino)methyl)-6,7-dihydro-5H-cyclopenta[b]pyridine-2-carboxamide]",2.5 nM,11.5 nM
"C[C@H](NCc1cc(C(=O)Nc2cncc([C@]3(c4nncn4C)C[C@@H](C)C3)c2)nc2c1CCC2(F)F)C1CCC1 [Compound C41, 4-({[(1S)-1-cyclobutylethyl]amino}methyl)-7,7-difluoro-N-{5-[(1r, 3s)-3-methyl-1-(4-methyl-1,2,4-triazol-3-yl)cyclobutyl]pyridin-3-yl}-5H,6H-cyclopenta[b]pyridine-2-carboxamide]",1.5 nM,7 nM
"Cn1cnnc1[C@]1(c2cccc(NC(=O)c3cc(CNC4(C)CCC4)c4c(n3)C(F)(F)CC4)c2)C[C@H](CC#N)C1 [Compound C42, N-(3-((1s, 3s)-3-(cyanomethyl)-1-(4-methyl-4H-1,2,4-triazol-3-yl)cyclobutyl)phenyl)-7,7-difluoro-4-(((1-methylcyclobutyl)amino)methyl)-6,7-dihydro-5H-cyclopenta[b]pyridine-2-carboxamide]",1.5 nM,25.1 nM
"C[C@H](NCc1cc(C(=O)Nc2cccc([C@]3(c4nncn4C)C[C@@H](CC#N)C3)c2)nc2c1CCC2(F)F)C1CC1 [Compound C43, N-(3-((1s,3R)-3-(cyanomethyl)-1-(4-methyl-4H-1,2,4-triazol-3-yl)cyclobutyl)phenyl)-4-((((S)-1-cyclopropylethyl)amino)methyl)-7,7-difluoro-6,7-dihydro-5H-cyclopenta[b]pyridine-2-carboxamide]",1.3 nM,10.1 nM
"Cn1cnnc1C[C@]1(c2cccc(NC(=O)c3cc(CNC4(C)CC4)c4c(n3)C(C)(C)CN4)c2)C[C@H](C#N)C1 [Compound C44, 3,3-dimethyl-7-{[(1-methylcyclopropyl)amino]methyl}-N-{3-[(1r, 3r)-3-cyano-1-[(4-methyl-1,2,4-triazol-3-yl)methyl]cyclobutyl]phenyl}-1H,2H-pyrrolo[3,2-b]pyridine-5-carboxamide]",1.5 nM,3.3 nM
"Cn1cnnc1[C@]1(c2cccc(NC(=O)c3cc(CNCC4CCCC4)c4c(n3)C(C)(C)CN4)c2)C[C@H](C)C1 [Compound C45, 7-{[(cyclopentylmethyl)amino]methyl}-3,3-dimethyl-N-{3-[(1r, 3s)-3-methyl-1-(4-methyl-1,2,4-triazol-3-yl)cyclobutyl]phenyl}-1H,2H-pyrrolo[3,2-b]pyridine-5-carboxamide]",1.3 nM,5.4 nM
"C[C@H](NCc1cc(C(=O)Nc2cccc([C@]3(c4nncn4C)C[C@@H](C)C3)c2)nc2c1NCC2(C)C)C1CCC1 [Compound C46, 7-({[(1S)-1-cyclobutylethyl]amino}methyl)-3,3-dimethyl-N-{3-[(1r, 3s)-3-methyl-1-(4-methyl-1,2,4-triazol-3-yl)cyclobutyl]phenyl}-1H,2H-pyrrolo[3,2-b]pyridine-5-carboxamide]",0.7 nM,1.8 nM
"C[C@@H]1CN(Cc2cc(C(=O)Nc3cccc([C@]4(c5nncn5C)C[C@@H](CC#N)C4)c3)nc3c2NCC3(C)C)CC[C@@H]1F [Compound C47, 7-{[(3R,4S)-4-fluoro-3-methylpiperidin-1-yl]methyl}-3,3-dimethyl-N-{3-[(1s, 3s)-3-(cyanomethyl)-1-(4-methyl-1,2,4-triazol-3-yl)cyclobutyl]phenyl}-1H,2H-pyrrolo[3,2-b]pyridine-5-carboxamide]",0.7 nM,1.2 nM
